Data published in PMC5357639 (Frontiers in Chemistry, 2017).
Several values for one entry are separate records, joined by “and”; a condition that tells them apart may be missing. Equal values may be shown once. Where a SMILES comes first, the peptide text is derived from it. The star is where a group is joined. Orn(α-tetramethylguanidino) = CN(C)C(=N[C@@H](CCCN)C(=O)*)N(C)C

Tests used:
[1] = in vivo; set-up: species or system NMRI mice; conditions: mouse, ip; for C0: c0 (initial concentration at time point 0 min)
Excerpt: (§1) A protocol to quantify Api88, Api137, and their major metabolites was established analog to that of oncocin derivatives, reported recently (Schmidt et al., [2016]). Briefly, an Alliance® 2695 HPLC system was coupled online to an ESI-QqLIT-MS (4,000 QTRAP®) equipped with a TurboV™ ion-spray source and operated in positive ion MRM mode using the Analyst® 1.6 software. Separation was achieved on a Jupiter C18-column (internal diameter 1 mm, length 150 mm, particle size 5 μm, pore size 300 Å) at 55 °C using a linear 5-min gradient from 2.7 to 20.7% aqueous acetonitrile containing ammonium formate (26 mmol/L, pH 3.0). Further details about instrumentation, MRM optimization, and MS settings are provided as Supplementary Material (Tables S1–S4, Method M1).
(§2) Female NMRI mice (8–9 weeks, 25–35 g) were injected intraperitoneally (10 mL/kg) with peptides dissolved in sterile PBS (Gibco® Life Technologies™, Darmstadt, Germany) at concentrations of 0.5 or 2 g/L corresponding to doses of 5 or 20 mg/kg body weight, respectively. After 10, 20, 30, 60, or 90 min animals (n = 7) were euthanized by carbon dioxide inhalation and terminal bleeding via cardiac puncture. Lithium-heparin plasma (n = 7) was prepared and stored at −80°C. Immediately after the final bleed, mice were perfused through the left ventricle with saline (0.9%, 50 mL, ~3 min) to remove blood from all organs controlled by discoloration of the liver. Organs were removed aseptically and directly frozen in liquid nitrogen. Spontaneously released urine was collected and frozen immediately at −80°C.
(§3) Method M1: M ultiple reaction monitoring (MRM) transitions for apidaecin peptides Peptides (1 µ g/ m L ) were dissolved inaqueous acetonitrile (25% or 60% v/ v) containing either formate buffer (26 mmol/ L, pH 2.6, 3.0, 3.3 or 3.9 ) or formic acid (0.1% v/v ) and infused (flow rate 5 µ L/min, PHD 2600 s yringe pump) into the ES I-Q q L IT -MS (4000 QTRAP®) to optimize buffer composition and MRM. Transitions were selected from the tandem mass spectra (MS/MS) and confirmed on an ESI-QqTOF-MS (QSTAR® pulsar I) providing higher mass resolutions and mass accuracies than the QTRAP ®. The settings for declustering potential (DP), collision potential (CE), and collision cell exit potential (CXP) were optimized by ramping the respective pot entials using the compound optimization tool of the Anal yst® software.
(§4) Method M2: Sample preparation
(§5) Frozen organs (5 per group) wer e homogenized in sterile PBS (500 µ L) containing Protease Inhibitor Mix M (1% v/v; SERVA Electrophoresis GmbH, Heidelberg, German y) using an Ultra-Turr ax ® T25 basic (IKA-Werke, Staufen, German y, rotational speed 21,500 min-1) for 1 min. Homogenates were sonicated on ice (35% amplitude, mode: 5 s on; 5 s off for 1 min; Vibra-cell™ 75041, Thermo Fisher Scientific) to disrupt cells. After centrifugation (15 min, 21,460 x g, 4°C) the supernatants were stored at - 80°C.
(§6) Aliquots of plasma (10 µL) or liver (10 µ L), kidney (50 µ L), and brain hom ogenates (100 µ L) were spiked with isotope -labeled Api88, Api137, Api1- 16, and Api1- 17 (2.5 µ g/ m L). The samples were diluted fourfold with aqueous phosphoric acid (3.4% v/v), loaded on an Oasis H LB 9 6 -well solid phase extraction (SPE) plate (5 mg sorbent, Waters ), washed with aqueous methanol (0.3 m L, 5% v/ v), eluted with methanol (0.3 m L), and dried in a vacuum centrifuge (30 °C; SpeedVac, Eppendorf ). The samples were dissolved prior analysis in aqueous acetonitrile (3% v/v) containing formic acid (0.1 % v/v).
(§7) Stock solutions (1 g/L) of the peptides and their corresponding isotope-labelled internal standards were prepared and diluted in water. Calibration and validation mixtures (10 µL) of unlabeled (0.025, 0.1, 0.5 or 2.5 µg/m L) and isotope-labeled peptides ( 2.5 µ g/ m L ) w ere mix ed with plasma or organ homogenates (10 to 100 µL) obtained from untreated animals fo r […]
(§8) Limits of detection (LOD) and quantification (LOQ) corresponded to the lowest peptide […]

[2] = Organ distribution (blood, kidney, liver and brain homogenates, urine) after intraperitoneal administration; format: in vivo, NMRI mice; conditions: for Peptide level in brain homogenates (not detected, less than LOD) / Concentration in urine / Peptide level in brain (not detected, LOD converted to brain weight) / Recovered peptide amount in kidneys of treated animals / Recovery rate in blood relative to the injected peptide amount: mouse, in vivo, ip
Excerpt: as §1, §2, §3, §4, §5, §6, §7, §8

[3] = test system: E. coli ATCC 25922; conditions: E. coli ATCC 25922; ref Czihal et al., 2012; Berthold et al., 2013; cited from earlier work
Excerpt: Antimicrobial peptides (AMPs) are considered as promising alternatives to common antibiotics that threateningly lose their therapeutic potentials against multidrug-resistant pathogens (Fox, [2013]; Wang et al., [2015]). In contrast to approved therapeutic peptide hormones, antimicrobial peptides have to be administered at much higher doses, which may amplify general drawbacks of peptide therapeutics. For example, the diabetes peptide drugs exenatide and pramlintide are given at daily doses of 20 μg (Byetta®; ~0.5 μg/kg) and 120 μg (Symlin®; ~1.5 μg/kg; Heine et al., [2005]; Hay et al., [2015]) ... || Apidaecin analogs Api88 and Api137 are similarly active against Gram-negative bacteria with a tendency of higher activity of Api88 against K. pneumoniae (Czihal et al., [2012]; Berthold et al., [2013]). However, Api88 carries a C-terminal amide that is responsible for its very fast proteolytic cleavage in serum, the supernatant obtained after complete coagulation and centrifugation of blood. The in vitro serum stability assay, which is an important in vitro criterion to select therapeutic peptides for systemic applications, yielded very short half-life times of 5 min for Api88, which indicate ...

SMILES | AUC(0-inf) ([1]; female, NMRI, 5 mg/kg) [ng·h/mL] | Cmax ([1]; female, NMRI, 5 mg/kg) [ng/mL] | MRT ([1]; female, NMRI, 5 mg/kg) [min] | clearance ([1]; female, NMRI, 5 mg/kg) [mL/min] | half-life ([1]; female, NMRI, 5 mg/kg) [min] | C0 ([1]; female, NMRI, 5 mg/kg) [ng/mL] | AUC(0-inf) ([1]; female, NMRI, 20 mg/kg) [ng·h/mL] | Cmax ([1]; female, NMRI, 20 mg/kg) [ng/mL] | MRT ([1]; female, NMRI, 20 mg/kg) [min] | clearance ([1]; female, NMRI, 20 mg/kg) [mL/min] | half-life ([1]; female, NMRI, 20 mg/kg) [min] | Time within which peptide is cleared [1] | AUMC0 → ∞ ([1]; 5 mg/kg) [μg^*min^2*mL^−^1] | Detection in plasma ([1]; 5 mg/kg) | Volume of distribution ([1]; 5 mg/kg) [mL] | k (elimination constant) ([1]; 5 mg/kg) [min^−^1] | AUMC0 → ∞ ([1]; 20 mg/kg) [μg^*min^2*mL^−^1] | Volume of distribution ([1]; 20 mg/kg) [mL] | c0 (initial concentration at time point 0 min) ([1]; 20 mg/kg) [µg/mL] | k (elimination constant) ([1]; 20 mg/kg) [min^−^1] | also measured
CC[C@H](C)[C@H](NC(=O)[C@H](Cc1ccc(O)cc1)NC(=O)[C@@H](NC(=O)[C@@H]1CCCN1C(=O)[C@H](CCCNC(=N)N)NC(=O)[C@H](CC(N)=O)NC(=O)[C@H](CC(N)=O)NC(=O)[C@H](CCCN)N=C(N(C)C)N(C)C)C(C)C)C(=O)N1CCC[C@H]1C(=O)N[C@@H](CCCNC(=N)N)C(=O)N1CCC[C@H]1C(=O)N[C@@H](CCCNC(=N)N)C(=O)N1CCC[C@H]1C(=O)N1CCC[C@H]1C(=O)N[C@@H](Cc1c[nH]cn1)C(=O)N1CCC[C@H]1C(=O)N[C@@H](CCCNC(=N)N)C(=O)N[C@@H](CC(C)C)C(N)=O [Api88] ({Orn(α-tetramethylguanidino)}-NNRPVYIPRPRPPHPRL-NH2) | 355 | 600 | 30.5 | 6.4 | 17.3 | 1000 | 1900 | 4100 | 23.9 | 5.4 | 11.1 | ~ 90 min | 650 | undetectable | 137 | 0.040 | 2730 | 100 | 6.2 | 0.062 | c0 (initial concentration at time point 0 min) ([1]; 5 mg/kg): 1 µg/mL; Peptide level in brain homogenates (not detected, less than LOD) ([2]; female, NMRI): < 43 ng/mL homogenate; Concentration in urine ([2]; female, NMRI, 20 mg/kg): ~ 0.2 μg/mL; Peptide level in brain (not detected, LOD converted to brain weight) [2]: < 89 μg/g brain; Recovered peptide amount in kidneys of treated animals [2]: 1.8 µg/g; Recovery rate in blood relative to the injected peptide amount [2]: below 1%; Concentration in urine ([2]; 5 mg/kg): below LOD; MIC [3]: ~ 4 μg/mL
CC[C@H](C)[C@H](NC(=O)[C@H](Cc1ccc(O)cc1)NC(=O)[C@@H](NC(=O)[C@@H]1CCCN1C(=O)[C@H](CCCNC(=N)N)NC(=O)[C@H](CC(N)=O)NC(=O)[C@H](CC(N)=O)NC(=O)[C@H](CCCN)N=C(N(C)C)N(C)C)C(C)C)C(=O)N1CCC[C@H]1C(=O)N[C@@H](CCCNC(=N)N)C(=O)N1CCC[C@H]1C(=O)N[C@@H](CCCNC(=N)N)C(=O)N1CCC[C@H]1C(=O)N1CCC[C@H]1C(=O)N[C@@H](Cc1c[nH]cn1)C(=O)N1CCC[C@H]1C(=O)N[C@@H](CCCNC(=N)N)C(=O)N[C@@H](CC(C)C)C(=O)O [Api137] ({Orn(α-tetramethylguanidino)}-NNRPVYIPRPRPPHPRL-OH) | 160 | 200 | 54.9 | 15.1 | 33.8 | 200 | 1200 | 3600 | 21 | 8.4 | 16.9 | ~ 90 min | 1512 | still detected | 659 | 0.020 | 524 | 77 | 7.8 | 0.041 | c0 (initial concentration at time point 0 min) ([1]; female, NMRI, 5 mg/kg): 0.22 µg/mL; t1/2 (elimination half life time) ([1]; 20 mg/kg): 17 min; Kidney concentration estimated from detected peptide amount ([2]; estimating the volume of both kidneys as 0.5 mL): 4.8 µg/mL; Peptide level in brain homogenates (not detected, less than LOD) ([2]; female, NMRI): < 18 ng/mL homogenate; Peptide level in brain (not detected, LOD converted to brain weight) [2]: < 37 μg/g brain; Recovered peptide amount in kidneys of treated animals [2]: 2.4 µg/g; Recovery rate in blood relative to the injected peptide amount [2]: below 1%; MIC [3]: 4 μg/mL and ~ 4 μg/mL
